Assay results taken from patent publication US7915393B2 (Corixa Corporation, priority 2001, dated 2011).
Marks after values point to notes of the source that are not given here.

Columns and labels:
[1] = system: WT1-specific CD8+ T cell clone and T cell line; test: HLA-A2 peptide-MHC tetramer staining of WT1 specific T cells (flow cytometry); format: cell-based, human
[2] = system: targets incubated with WT1 peptides (EL-4) and WT1 positive tumor cells (TRAMP-C, BLK-SV40); test: CTL from mice immunized with WT1 peptides, chromium release assay; format: in vivo, B6 mice; conditions: for generation of peptide specific CTL following immunization: spleen cells stimulated in vitro with peptide; for generation of peptide specific CTL following immunization / lysis of WT1 positive tumor cells by peptide specific CTL: chromium release; for lysis of WT1 positive tumor cells by peptide specific CTL: WT1 positive tumor cell lines (TRAMP-C, BLK-SV40)
Protocol: CTL were evaluated with a standard chromium release assay (Chen et al., Cancer Res. 54:1065-1070, 1994). 10^6 target cells were incubated at 37° C. with 150 μCi of sodium ^51Cr for 90 minutes, in the presence or absence of specific peptides. Cells were washed three times and resuspended in RPMI with 5% fetal bovine serum. For the assay, 10^4 51Cr-labeled target cells were incubated with different concentrations of effector cells in a final volume of 200 μl in U-bottomed 96-well plates. Supernatants were removed after 4 to 7 hours at 37° C., and the percentage specific lysis was determined by the formula: % specific lysis=100×(experimental release−spontaneous release)/(maximum release−spontaneous release).
P117-139, a peptide with motifs appropriate for binding to class I and class II MHC, was identified as described above using TSITES and BIMAS HLA peptide binding prediction analyses. Mice were immunized as described in Example 3. […] CTL were evaluated with a standard chromium release assay.

[3] = system: T cells of immunized B6 mice; test: Proliferative T cell responses of immunized mice, thymidine incorporation assay; format: in vivo; conditions: for stimulation index (SI), proliferative T cell response: mice immunized with WT1 peptides, thymidine incorporation (FIGS. 5A-5C)
Protocol: Peptides were dissolved in 1 ml sterile water for injection, and B6 mice were immunized 3 times at time intervals of three weeks. Adjuvants used were CFA/IFA, GM-CSF, and MONTANIDE®. […] In particular, lymphocytes were cultured in 96-well plates at 2×10^5 cells per well with 4×10^5 irradiated (3000 rads) syngeneic spleen cells and the designated peptide.

[4] = system: WT1 specific CD8+ T-cell clone; test: IFN-γ ELISPOT recognition by human WT1 specific CD8+ T-cell clone (whole gene priming); format: cell-based; conditions: HLA-A2 restricted clone
[5] = Clinical chemistry and hematology analysis, WT1 dose titration study; format: in vivo; conditions: mice immunized with WT1 protein
Excerpt: Special emphasis was put on evaluation of potential hematopoietic toxicity.

[6] = system: DC2.4 A2/Kb cells pulsed with peptides; test: Identification of CTL epitope: chromium release with peptide pulsed DC2.4 A2/Kb cells; format: in vivo; conditions: HLA-A2/Kb transgenic mice
[7] = system: human cells; test: Cellular cytotoxicity of WT1-ubiquitin fusion expressed in human cells; format: cell-based; conditions: compared with native WT1
Excerpt: The human ubiquitin open reading frame (SEQ ID NO:384) was mutated such that the nucleotides encoding the last amino acid encode an alanine instead of a glycine. […] The G->A mutation prevents co-translational cleavage of the […] protein by the proteases that normally process poly-ubiquitin during translation. The DNA and predicted amino acid sequence for the resulting construct are set forth in SEQ ID NOs:385 and 410, respectively. […] The resulting protein is predicted to be targeted to the proteosome by virtue of the added ubiquitin molecule.

[8] = system: mouse B6 class I antigens (D^b or K^b molecules on the surface of RMA-S cells); test: Peptide binding to C57Bl/6 murine class I MHC using RMA-S cells (flow cytometry); format: cell-based; conditions: 9-mer peptides within p117-139
Protocol: In brief, RMA-S cells were cultured for 7 hours at 26° C. in complete medium supplemented with 1% FCS. A total of 10^6 RMA-S cells were added into each well of a 24-well plate and incubated either alone or with the designated peptide (25 ug/ml) for 16 hours at 26° C. and additional 3 hours at 37° C. in complete medium. Cells were then washed three times and stained with fluorescein isothiocyanate-conjugated anti D^b or anti-K^b antibody (PharMingen, San Diego, Calif.). Labeled cells were washed twice, resuspended and fixed in 500 ul of PBS with 1% paraformaldehyde and analyzed for fluorescence intensity in a flow cytometer (Becton-Dickinson FACSCALIBUR™). The percentage of increase of D^b or K^b molecules on the surface of the RMA-S cells was measured by increased mean fluorescent intensity of cells incubated with peptide compared with that of cells incubated in medium alone.

[9] = system: CD4 cells of splenocytes; test: Intracellular interferon-gamma staining of CD4 cells (FACS) after immunization with WT-1 protein constructs; format: in vivo; conditions: C57BL/6 mice
Protocol: Groups of four C57BL/6 mice were immunized subcutaneously with 20 μg WT-1 proteins: WT-1-F or WT-1 full length (FL), with Ra12, HIS or TAT fusions. Immunizations were performed at weeks 0, 3 and 9, and spleens were harvested at week 11. Splenocytes were then stimulated in vitro for 6 hours with medium alone, with a 15-mer peptide “p32” ([…], amino acids 125-139 of WT-1; found within the p117-139 peptide set forth in SEQ ID NO:2), with the DC2.4-WT-1/LAMP cell line, or with rRa12. CD4 cells were then stained for intracellular interferon-gamma and quantified by FACS analysis. A portion of these splenocytes were then stimulated in vitro for 8 days, after which CD4+ IFN+ cells were enumerated. After the 6 hour stimulation with p32, 0.33% of CD4-positive cells were positive for intracellular IFN-gamma staining in mice immunized with the truncated N-terminal construct rWT1-F-TAT. By contrast, only 0.10% of CD4-positive cells stained positive for intracellular IFN-gamma in mice immunized with rWT1-FL-TAT. […] By contrast, 0.24% of CD4-positive cells from mice immunized with the full-length WT1-TAT construct stained positive for intracellular IFN-gamma.

## LDFAPPGAS
[1]
  staining of the WT1-specific CD8+ T cell clone by HLA-A2 tetramers incubated with an excess of the peptide: did not stain the CD8+ T cell clone

## p136-144: 9-mer class I MHC binding peptide; human or mouse form not stated at this place (SCLESQPAI; UniProt P19544 136-144, looked up, fragment)
[2]
  generation of peptide specific CTL following immunization: CTL were generated

## RDLNALLPAVPSLGGGG [p6-22]
[3]
  stimulation index (SI), proliferative T cell response: 2.3

## GATLKGVAAGSSSSVKWTE [p244-262]
[3]; Vaccine A immunized mice, bulk lines, peptide 25 ug/ml, 96 hr (FIG. 6A)
  stimulation indices (SI), proliferative T cell response to the immunizing peptides: No proliferative response

## VRRVSGVAPTLVRS [Peptide P299-313]
[3]
  stimulation index (SI), proliferative T cell response: 3.3

## VLDFAPPGASAYGSL [peptide 10]
[4]
  recognition by WT1 specific CD8+ T-cell clone (ELISPOT): recognized

## VLDFAPPGAS
[4]
  recognition by WT1 specific CD8+ T-cell clone (ELISPOT): specifically recognized

## WT1 protein: WT1 protein used for immunization in a multiple dose titration in mice
[5]
  blood cell counts and blood chemistry (BUN, creatinine, bilirubin, albumin, globulin): within the normal range
MPL-SE as adjuvant, doses 25 μg, 100 μg to 1000 μg WT1 protein, female C57/B6 mice (FIG. 19)
  WT1-specific antibody response: strong WT1-specific antibody response
MPL-SE as adjuvant, doses 25 μg, 100 μg to 1000 μg WT1 protein, female C57/B6 mice (FIG. 20)
  cellular T-cell responses: cellular T-cell responses
Mice immunized with WT1 protein
  myeloid/erythroid ratio in sternum and femur marrow: normal
mice, multiple dose titration
  systemic histopathological or toxicological effects of immunization: No systemic histopathological or toxicological effects

## CMTWNQMNL
[2]
  lysis of WT1 positive tumor cells by peptide specific CTL: failed to lyse cell lines that expressed WT1 proteins
[2]; listed as p235-243
  generation of peptide specific CTL following immunization: peptide specific CTL lines were generated

## WT1 p39-47: irrelevant HLA-A2 peptide used as tetramer control (DFAPPGASA; UniProt P19544 39-47, looked up, fragment)
[1]
  staining of the WT1-specific CD8+ T cell clone by HLA-A2 tetramers incubated with an excess of the peptide: did not stain the CD8+ T cell clone

## QWAPVLDFAPPGASA [peptide 9]
[4]
  recognition by WT1 specific CD8+ T-cell clone (ELISPOT): recognized

## SCLESQPAI
[2]
  generation of peptide specific CTL following immunization: peptide specific CTL lines were generated

## NLYQMTSQL
[2]
  generation of peptide specific CTL following immunization: not

## ALLPAVPSL
[2]
  generation of peptide specific CTL following immunization: peptide specific CTL lines were generated
[6]
  WT1 immunized animals with CTL responses to the peptide: 4 of 5

## WT1-Ubiquitin fusion: mutated (G->A) human ubiquitin fused upstream of a splice variant of human WT1
[7]
  cellular cytotoxicity when expressed in human cells: decreased cellular cytotoxicity

## VLDFAPPGA
[1]
  staining of the WT1-specific CD8+ T cell clone by HLA-A2 tetramers incubated with an excess of the peptide: specifically stained the CD8+ T cell clone
[4]
  recognition by WT1 specific CD8+ T-cell clone (ELISPOT): specifically recognized

## NAPYLPSCL
[2]; EL-4 pulsed with peptide, E:T 25:1 (FIG. 13A)
  lysis of targets incubated with 9-mer peptide by CTL generated by immunization with p117-139: lysed targets
[2]; FIGS. 13B and 13C
  peptide specific lysis after restimulation of the p117-139 specific CTL line with the 9-mer: demonstrated peptide specific lysis
[2]
  lysis of WT1 positive tumor cells by peptide specific CTL: showed lysis of a WT1 positive tumor cell line
[8]
  binding to H-2^b class I molecules: bind to H-2^b class I molecules

## rWT1-FL-TAT: full-length WT1 as TAT fusion
[9]; 20 μg s.c. weeks 0, 3 and 9, 6 hour stimulation with p32
  CD4-positive cells positive for intracellular IFN-gamma staining: 0.10%
[9]; 20 μg s.c., after the 8 day stimulation
  CD4+ cells with IFN-gamma staining: 0.24%
